For data set [1], the system named is activator protein-1 (AP-1). Kind of data set: AP-1 reporter activity in HCT116 cells. In kind it is cell-based. The settings on record: HCT116 cells treated 48 h. As to the method: (§1) FIGS. 3A-3H. Anticancer effect of herbacetin. (a) The effect of herbacetin on ODC activity in colon cancer cell lines was measured as the release of CO2 from L-[1-C^14] ornithine. […] (b) The effect of herbacetin and DFMO on the growth of colon cancer cells and (c) TPA-induced JB6 cell growth was compared. Cells were incubated for 72 h and growth was estimated using the MTS assay. (d) The effect of herbacetin on anchorage independent HCT116 colon cancer cell growth and (e) TPA-induced JB6 cell transformation was assessed. Cells were incubated for 2 weeks and then colonies were counted using a microscope and the Image-Pro PLUS (v.6) computer software program. The effect of herbacetin on AP-1 reporter activity in (f) HCT116 colon cancer cells and (g) TPA-induced AP-1 reporter activity in JB6 mouse epidermal cells was analyzed using the substrates included in the reporter assay system. […] (h) The effect of herbacetin on the phosphorylation of ERK1 and ERK2 in HCT116 colon cancer cells was determined by Western blotting. […]
(§2) We determined whether herbacetin affected the reporter activity of the MAP kinase target transcription factor, activator protein-1 (AP-1), in HCT116 cells or JB6 cells stimulated with TPA. […] AP-1 reporter activity was then measured (FIG. 3f, g) and the activity was attenuated by herbacetin in colon cancer cells and in TPA-activated JB6 cells. […]

The test system of data set [2] is SKH-1 hairless mice, solar UV-induced skin tumors. Description: solar UV induced-skin tumor mouse model. The conditions noted are these: herbacetin 100 or 500 nmol topical for 7 weeks; relative to vehicle group. In kind it is in vivo. As to the method:
Mice were exposed to solar-UV (48 kJ/UVA, 2.9 kJ/UVB) 3 times weekly for 12 weeks. The solar UV treatment was discontinued and at twenty weeks later, mice were topically treated with 100 or 500 nmol of herbacetin (in acetone) for an additional 7 weeks. Mice (8-9 weeks old) were divided into three groups: 1) solar UV+vehicle group (n=4); 2) solar UV+100 nmol of herbacetin (n=4) group; 3) solar UV+500 nmol of herbacetin (n=4). The volume of tumors per mouse was recorded weekly.

Another data set relates to APC^min+ mice. Description: APC^min+ mouse model, 8 weeks. In kind it is in vivo. The text has this:
Male C57BL/6J^(Min/+) mice were obtained from Jackson Laboratory and maintained under “specific pathogen-free” conditions according to the guidelines established by the University of Minnesota Institutional Animal Care and Use Committee. APC^min+ male mice were bred with C57BL/6J APC wildtype female mice. The progeny were genotyped by PCR assay to determine whether they were heterozygous for the min allele or were homozygous wildtype. APC^min+ male or female progeny were randomly assigned to groups after weaning at 3 weeks. Mice (5˜6 weeks old) were divided into 4 groups: 1) untreated vehicle group (n=12); 2) mice treated with 0.4 mg herbacetin/kg of body weight (n=13); 3) mice treated with 2 mg herbacetin/kg of body weight (n=13); and mice treated with 100 mg difluoromethylornithine (DFMO)/kg of body weight (n=10). Herbacetin, DFMO, or vehicle was injected 3 times a week for 8 weeks.

The subject of data set [3] is HCT116 colon cancer cells. Description: cDNA microarray of HCT116 colon cancer cells. In kind it is cell-based. The conditions noted are these: HCT116, 1 or 2 days herbacetin. As to the method:
FIGS. 7A-7D. Profiling of gene expression in HCT116 colon cancer cells treated with herbacetin 1 or 2 days was assessed by microarray. […] (d) RT-PCR validation of differentially expressed genes.
RNA samples from cells treated or not treated for 1 or 2 days with herbacetin were used. Data were analyzed using hierarchical clustering and the DAVID database as previously described (Sturn, A., Quackenbush, J. & Trajanoski, Z. Genesis: cluster analysis of microarray data. Bioinformatics 18, 207-208 (2002); Huang da, W., Sherman, B. T. & Lempicki, R. A. Systematic and integrative analysis of large gene lists using DAVID bioinformatics resources. Nat Protoc 4, 44-57 (2009)).

For data set [4], the system named is activator protein-1 (AP-1). Description: TPA-induced AP-1 reporter activity in JB6 cells. In kind it is cell-based, mouse. The conditions noted are these: JB6 cells pre-treated 2 h, then TPA 48 h. The protocol:
as §1, §2

Setting [5] is: herbacetin 0.4 or 2 mg/kg, DFMO 100 mg/kg, 3 times/week for 8 weeks, vs vehicle.

With `O=c1c(O)c(-c2ccc(O)cc2)oc2c(O)c(O)cc(O)c12` [herbacetin, 3,5,7,8,4′-Pentahydroxyflavone], the AP-1 reporter activity entry in data set [1] and in data set [4] was “attenuated” throughout. The “size (volume) of solar UV-induced skin tumors” value in data set [2] is “significantly decreased”. The “anemia (bloody stools)” value with APC^min+ mice (0.4 or 2 mg/kg, 8 weeks) was “seemed to reduce anemia”. The “tolerability: signs of toxicity, body weight loss” value with APC^min+ mice (8 weeks treatment) was “without overt signs of toxicity or significant body weight loss”. Moreover, the polyp number entry in the data set on APC^min+ mice (setting [5]) is “significantly suppressed”. In the data set with APC^min+ mice (setting [5]), the polyp size result was “significantly suppressed”. Besides, in the data set with APC^min+ mice (vs vehicle- or DFMO-treated mice), the “overall appearance of mice” value is on record as “appeared healthier”. For the same molecule, in data set [3], the gene expression result was “significantly altered genes involved in proliferation, cell cycle, apoptosis and metabolic processes”.

Source of the values: patent US10532040B2, “Methods of treating cancer with herbacetin” (REGENTS OF THE UNIVERSITY OF MINNESOTA, priority 2011, dated 2020).
